Columns and labels:
Type in all cases: cell-based
[1] = test system: Reconstructed human epidermis containing melanocytes; assay: TNFα and IFNγ-induced melanocyte detachment in reconstructed human epidermis, immunofluorescence of melan-A and E-cadherin; conditions: 24 h, 20 ng/ml TNFα and IFNγ, 10 μM inhibitor (FIG. 5)
Method: Reconstructed human epidermis containing melanocytes were stimulated 24 h with or without 20 ng/ml of TNFα and IFNγ in the presence or absence of 10 μM of MMP9 inhibitor ab142180 or SB-CT. Immunofluorescence microscopy analysis of melan-A (red) and E-cadherin (green) expression, Magnification 400×. White arrows show melanocytes that are detached from the basal layer of the epidermis.
(§1) As discussed above, TNFα and IFNγ induce MMP9 gene expression in melanocyte. Inventors used two commercially available synthetic MMP9 inhibitors, SB3CT (a […]) and a selective MMP9 inhibitor (ab142180), to assess whether such inhibition could inhibit TNFα and IFNγ effects on depigmentation. In vitro reconstructed human epidermis containing melanocytes were stimulated with these two cytokines in the presence or absence of the two different MMP9 inhibitors for 24 h (FIG. 5). The combination of TNFα and IFNγ induced melanocyte detachment and E-cadherin inhibition.
Pigmented epidermis (RHEm) are reconstructed from normal human keratinocytes (NHEK) and from normal human melanocytes (NHEM), previously isolated from preputial samples. […]
Then reading with a fluorescence microscope for the analysis of melanocytes detachment.

MMP9 gene expression = assay: Real-time PCR analysis of MMP9 gene expression in reconstructed human pigmented epidermis treated with TNFα and IFNγ; conditions: 24 h, 10 ng/ml TNFα and IFNγ, 1 μM and 10 μM inhibitor, real-time PCR (FIG. 13A)
Method: (§2) Reconstructed human pigmented epidermis were treated 24 h with or without 10 ng/ml of TNFα and IFNγ in the presence or absence of 1 μM and 10 μM of MMP9 inhibitors ab142180 or SB-CT. (A) Real-time PCR analysis of MMP9 gene expression. Results are expressed as a fold increase above control culture. GAPDH was used as a housekeeping gene. (B) Measurement of MMP9 levels by ELISA in cell-free supernatants.
as §1
After 10 days of reconstruction (D10), reconstructed human pigmented epidermis (RHEm) are placed in 6 wells plate (NUNC reference 140675) in 2 ml of culture medium without hydrocortisone to which 10 ng/ml of interferon (IFN)-γ (R&D systems) and 10 ng/ml of “tumor necrosis factor (TNF)-α” (R&D systems) are added. A control condition without cytokines addition is performed. […]

MMP9 = MMP9 levels by ELISA in cell-free supernatants of reconstructed human pigmented epidermis treated with TNFα and IFNγ; conditions: 24 h, 10 ng/ml TNFα and IFNγ, 1 μM and 10 μM inhibitor, ELISA in cell-free supernatants (FIG. 13B)
Method: as §2, §1
After 10 days of reconstruction (D10), reconstructed human pigmented epidermis (RHEm) are placed in 6 wells plate (NUNC reference 140675) in 2 ml of culture medium without hydrocortisone to which 10 ng/ml of interferon (IFN)-γ (R&D systems) and 10 ng/ml of “tumor necrosis factor (TNF)-α” (R&D systems) are added. A control condition without cytokines addition is performed. Each experimental condition is performed in duplicate or triplicate.

Row | SMILES | TNFα and IFNγ-induced melanocyte detachment and E-cadherin inhibition [1] | MMP9 expression induced by the combination of IFNγ and TNFα, gene level (MMP9 gene expression) | MMP9 expression induced by the combination of IFNγ and TNFα, protein level (MMP9 production) (MMP9) | MMP9 expression induced by the combination of IFNγ and TNFα, protein level (MMP9 production) (MMP9; listed as SB-CT)
1 | O=S(=O)(CC1CS1)c1ccc(Oc2ccccc2)cc1 (stereo not shown) [SB3CT, 2-[[(4-phenoxyphenyl)sulfonyl]methyl]-Thiirane] | strongly inhibited | reduced | reduced | reduces
2 | CCN(CC)Cc1cc(C)c(N(Cc2ccccc2)S(=O)(=O)c2ccc(OC)cc2)c(C(=O)NO)c1 [ab142180, 2-(N-benzyl-4-methoxyphenylsulfonamido)-5-((diethylamino)methyl)-N-hydroxy-3-methylbenzamide] | strongly inhibited | reduced | reduced | –
